In US20140120083A1, “TREATMENT OF CANCERS USING PI3 KINASE ISOFORM MODULATORS” (INFINITY PHARMACEUTICALS, INC., priority 2012, published 2014):

Key:
PI3K δ = PI3K δ (Homo sapiens, UniProt O00329); test: In vitro IC50, PI3K δ; assay type: biochemical; parameters: purchased Upstate
Excerpt: (§1) An exemplary system is PI 3-Kinase (human) HTRF™ Assay from Upstate.

PI3K γ = target: T1, PI3K γ (Homo sapiens, UniProt P48736); test: In vitro IC50, PI3K γ; assay type: biochemical
T1 construct: purchased Sigma
T1 sequence (P48736 whole entry): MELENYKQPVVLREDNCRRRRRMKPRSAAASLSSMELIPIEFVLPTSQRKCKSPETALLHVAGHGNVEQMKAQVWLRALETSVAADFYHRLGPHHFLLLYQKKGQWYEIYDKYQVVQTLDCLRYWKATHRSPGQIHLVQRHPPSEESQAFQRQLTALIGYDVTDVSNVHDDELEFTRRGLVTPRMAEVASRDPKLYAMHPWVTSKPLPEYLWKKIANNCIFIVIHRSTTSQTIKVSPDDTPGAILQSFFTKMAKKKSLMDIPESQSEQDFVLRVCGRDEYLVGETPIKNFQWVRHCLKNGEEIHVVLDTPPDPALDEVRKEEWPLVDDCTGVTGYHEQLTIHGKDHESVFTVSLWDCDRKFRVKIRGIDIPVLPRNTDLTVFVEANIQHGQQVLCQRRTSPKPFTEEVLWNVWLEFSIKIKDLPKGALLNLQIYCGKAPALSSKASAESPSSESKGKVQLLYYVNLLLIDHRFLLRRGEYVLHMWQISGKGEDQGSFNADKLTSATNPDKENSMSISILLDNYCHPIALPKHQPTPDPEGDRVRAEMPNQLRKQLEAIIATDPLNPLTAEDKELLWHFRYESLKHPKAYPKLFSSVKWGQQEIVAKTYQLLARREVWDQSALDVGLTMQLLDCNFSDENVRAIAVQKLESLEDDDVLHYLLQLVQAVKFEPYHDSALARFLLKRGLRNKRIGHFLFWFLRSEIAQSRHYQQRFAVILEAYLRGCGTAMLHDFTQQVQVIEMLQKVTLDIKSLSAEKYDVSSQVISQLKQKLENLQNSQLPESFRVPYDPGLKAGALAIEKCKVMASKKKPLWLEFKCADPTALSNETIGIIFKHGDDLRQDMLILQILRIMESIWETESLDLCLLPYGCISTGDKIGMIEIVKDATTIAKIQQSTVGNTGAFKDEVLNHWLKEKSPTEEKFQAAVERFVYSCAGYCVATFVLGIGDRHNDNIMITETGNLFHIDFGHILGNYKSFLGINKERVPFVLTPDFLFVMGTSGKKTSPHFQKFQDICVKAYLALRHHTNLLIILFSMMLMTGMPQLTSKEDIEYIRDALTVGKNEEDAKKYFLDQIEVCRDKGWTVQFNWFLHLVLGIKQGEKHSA
Excerpt: as §1

Chain of PI3K δ (O00329 whole entry): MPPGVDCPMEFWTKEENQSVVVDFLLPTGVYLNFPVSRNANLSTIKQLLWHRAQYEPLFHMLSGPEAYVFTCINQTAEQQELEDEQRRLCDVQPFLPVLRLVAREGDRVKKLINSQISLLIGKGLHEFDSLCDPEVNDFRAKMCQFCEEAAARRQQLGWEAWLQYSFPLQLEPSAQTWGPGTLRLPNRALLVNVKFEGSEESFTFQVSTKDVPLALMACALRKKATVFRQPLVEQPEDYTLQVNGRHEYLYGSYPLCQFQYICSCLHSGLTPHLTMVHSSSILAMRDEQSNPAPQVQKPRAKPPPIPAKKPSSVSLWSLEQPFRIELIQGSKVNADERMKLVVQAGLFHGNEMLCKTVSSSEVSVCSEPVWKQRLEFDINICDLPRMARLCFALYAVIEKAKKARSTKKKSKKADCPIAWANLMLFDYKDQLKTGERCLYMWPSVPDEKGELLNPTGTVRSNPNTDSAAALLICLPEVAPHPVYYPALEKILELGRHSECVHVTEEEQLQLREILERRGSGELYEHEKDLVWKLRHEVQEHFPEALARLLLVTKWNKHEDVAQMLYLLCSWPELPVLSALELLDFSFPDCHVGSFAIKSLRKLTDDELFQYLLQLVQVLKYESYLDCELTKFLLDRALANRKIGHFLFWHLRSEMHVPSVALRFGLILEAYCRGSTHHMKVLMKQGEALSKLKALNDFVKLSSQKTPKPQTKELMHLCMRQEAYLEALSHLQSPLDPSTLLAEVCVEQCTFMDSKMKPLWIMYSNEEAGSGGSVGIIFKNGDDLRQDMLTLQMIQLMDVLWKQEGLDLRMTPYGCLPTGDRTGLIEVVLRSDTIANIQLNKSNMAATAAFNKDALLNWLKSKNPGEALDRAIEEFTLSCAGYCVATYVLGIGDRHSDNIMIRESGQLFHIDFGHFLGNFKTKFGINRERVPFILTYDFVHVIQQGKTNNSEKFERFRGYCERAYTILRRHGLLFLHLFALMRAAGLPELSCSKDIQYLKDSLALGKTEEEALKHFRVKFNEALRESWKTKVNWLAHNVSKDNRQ
Chain of PI3K δ (P27986 whole entry partner): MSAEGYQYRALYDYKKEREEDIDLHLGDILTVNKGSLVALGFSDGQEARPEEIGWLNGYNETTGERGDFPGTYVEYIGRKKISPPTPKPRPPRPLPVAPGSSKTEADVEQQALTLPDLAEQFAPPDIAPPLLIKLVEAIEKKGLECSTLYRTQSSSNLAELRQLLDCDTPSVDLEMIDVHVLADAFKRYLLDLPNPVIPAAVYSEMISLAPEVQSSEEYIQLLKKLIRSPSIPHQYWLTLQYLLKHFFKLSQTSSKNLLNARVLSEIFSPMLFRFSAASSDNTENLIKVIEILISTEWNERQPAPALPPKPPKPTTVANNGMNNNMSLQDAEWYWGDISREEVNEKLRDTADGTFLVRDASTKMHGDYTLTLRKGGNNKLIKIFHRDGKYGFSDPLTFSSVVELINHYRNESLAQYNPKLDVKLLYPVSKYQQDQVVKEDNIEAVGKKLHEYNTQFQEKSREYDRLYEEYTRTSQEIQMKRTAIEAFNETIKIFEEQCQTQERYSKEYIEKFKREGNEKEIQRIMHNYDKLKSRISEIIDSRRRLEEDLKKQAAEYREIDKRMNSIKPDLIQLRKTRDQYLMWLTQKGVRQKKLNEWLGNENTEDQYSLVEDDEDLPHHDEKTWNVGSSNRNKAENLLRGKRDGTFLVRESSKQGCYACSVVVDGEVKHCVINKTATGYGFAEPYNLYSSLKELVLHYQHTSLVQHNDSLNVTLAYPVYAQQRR

Row | SMILES | IC50 (PI3K δ) | IC50 (PI3K γ)
1 | Cc1cccc2cc(Cn3cnc4c(N)ncnc43)n(-c3ccccc3F)c(=O)c12 [Compound 1] | < 10 µM | > 10 µM
2 | Cc1cccc2cc(Cn3nc(I)c4c(N)ncnc43)n(-c3ccccc3F)c(=O)c12 [Compound 2] | < 0.1 µM | < 1 µM
3 | Cc1cccc2cc(Cn3nc(C#CC4CC4)c4c(N)ncnc43)n(-c3ccccc3F)c(=O)c12 [Compound 4] | < 1 µM | > 10 µM
4 | Cc1cccnc1-n1c(Cn2nc(I)c3c(N)ncnc32)cc2ccccc2c1=O [Compound 92] | < 10 µM | < 10 µM
5 | CC(C)n1c(Cn2nc(I)c3c(N)ncnc32)cc2cccc(F)c2c1=O [Compound 117] | < 10 µM | 
6 | Cc1ccccc1-n1c(Cn2nc(-c3ccc(CN)cc3)c3c(N)ncnc32)cc2cccc(C)c2c1=O [Compound 118] | < 10 µM | 
7 | CNC(=O)c1cccc(-c2nn(Cc3cc4cccc(C)c4c(=O)n3-c3ccccc3C)c3ncnc(N)c23)c1 [Compound 120] | < 10 µM | 
8 | Cc1cccc2cc(Cn3nc(-c4cccc(O)c4)c4c(N)ncnc43)n(C)c(=O)c12 [Compound 124] | < 0.1 µM | 
9 | Cc1cccc2cc(Cn3nc(-c4cc(O)cc(F)c4)c4c(N)ncnc43)n(C)c(=O)c12 [Compound 125] | < 0.1 µM | 
10 | CCn1c(Cn2nc(-c3cccc(O)c3)c3c(N)ncnc32)cc2cccc(C)c2c1=O [Compound 126] | < 0.1 µM | 
11 | Cc1cccc2cc(Cn3nc(-c4cc(O)cc(F)c4)c4c(N)ncnc43)n(C3CCOCC3)c(=O)c12 [Compound 128] | < 0.1 µM | 
12 | CC(C)n1c(Cn2nc(I)c3c(N)ncnc32)cc2ccccc2c1=O [Compound 129] | < 10 µM | 
13 | Nc1ncnc2c1c(I)nn2Cc1cc2cccc(F)c2c(=O)n1-c1ccccc1F [Compound 132] | < 10 µM | 
14 | CC(C)n1c(Cn2nc(-c3cc(O)cc(F)c3)c3c(N)ncnc32)cc2cccc(F)c2c1=O [Compound 134] | < 0.1 µM | 
15 | CC(C)n1c(Cn2nc(-c3cccc(O)c3)c3c(N)ncnc32)cc2ccccc2c1=O [Compound 135] | < 0.1 µM | 
16 | CC(C)n1c(Cn2nc(-c3cc(O)cc(F)c3)c3c(N)ncnc32)cc2ccccc2c1=O [Compound 136] | < 0.1 µM | 
17 | CC(C)n1c(Cn2nc(-c3cccc(O)c3)c3c(N)ncnc32)cc2cccc(Cl)c2c1=O [Compound 137] | < 0.1 µM | 
18 | CC(C)n1c(Cn2nc(-c3cc(O)cc(F)c3)c3c(N)ncnc32)cc2cccc(Cl)c2c1=O [Compound 138] | < 0.1 µM | 
19 | Nc1ncnc2c1c(I)nn2Cc1cc2cccc(Cl)c2c(=O)n1C1CC1 [Compound 139] | < 0.1 µM | 
20 | Nc1ncnc2c1c(-c1cccc(O)c1)nn2Cc1cc2cccc(Cl)c2c(=O)n1C1CC1 [Compound 141] | < 0.1 µM | 
21 | Nc1ncnc2c1c(-c1cccc(O)c1)nn2Cc1cc2cccc(F)c2c(=O)n1-c1ccccc1F [Compound 143] | < 1 µM | 
22 | Nc1ncnc2c1c(-c1cc(O)cc(F)c1)nn2Cc1cc2cccc(F)c2c(=O)n1-c1ccccc1F [Compound 144] | < 0.1 µM | 
23 | Cc1cccc2cc([C@@H](C)Nc3ncnc4[nH]cnc34)n(-c3ccccc3)c(=O)c12 [Compound 195] | < 10 µM | < 10 µM
24 | Cc1cccc2cc([C@H](C)Nc3ncnc4[nH]cnc34)n(-c3ccccc3)c(=O)c12 [Compound 196] | < 0.1 µM | < 0.1 µM
25 | Cc1cccc2cc([C@@H](C)Nc3ncnc4[nH]cnc34)n(C3CC3)c(=O)c12 [Compound 199] | > 10 µM | > 10 µM
26 | CC(Nc1ncnc2[nH]cnc12)c1cc2ccccc2c(=O)n1C1CCN(C)CC1 (stereo not shown) [Compound 225] | < 1 µM | 
27 | Cc1cccc2cc(Cn3nc(-c4cn[nH]c4)c4c(N)ncnc43)n(C3CCN(C)CC3)c(=O)c12 [Compound 226] | < 1 µM | 
28 | Cc1cccc2cc(C(C)Nc3ncnc4[nH]cnc34)n(-c3cccc(F)c3)c(=O)c12 (stereo not shown) [Compound 229] | < 0.1 µM | < 1 µM
29 | Cc1ccccc1-n1c(Cn2nc(C(=O)O)c3c(N)ncnc32)cc2cccc(C)c2c1=O [Compound 297] | < 1 µM | 
